The values below come from US20070032460A1, “Use of voacamine and related compounds in the treatment of malaria” (priority 2005, published 2007).

The subject of data set [1] is CQ-sensitive (D6) strain of P. falciparum. Type of data set: cell-based.
The conditions of data set [2]: doses of 2000 and 5000 mg/day; cited from earlier work.
The subject of data set [3] is Plasmodium falciparum. The following applies: verapamil alone, without chloroquine; cited from earlier work.
Where [4] appears, read: Plasmodium falciparum, D6, chloroquine-sensitive strain of P. falciparum, in vitro, Table V, read-out: IC50 (10^−7 M) S.
Setting [5] is: chloroquine-sensitive strain of P. falciparum, in vitro, Table V, read-out: IC50 (10^−7 M) S.

Read-outs that look alike come from different tables or passages of the source.

As to `CC[C@H]1C[C@@H]2CN3CCc4c([nH]c5ccccc45)[C@](C(=O)OC)(C2)[C@H]13` [COR, Coronaridine], the IC50 in data set [1] (setting [4]) turned out to be 500 nM.

On to `CCN(CC)CCCC(C)Nc1ccnc2cc(Cl)ccc12` (centres unmarked) [CQ, chloroquine, reference compound], for which the IC50 in data set [1] (Plasmodium falciparum, D6, read-out: IC50, single drug) is 28.5 ± 3.5 nM; in data set [1] (Plasmodium falciparum, D6, read-out: IC50 of each drug in combination VOA (1.0 μM) CQ (0.3 μM)) it was 15.9 ± 2.7 nM; in data set [1] (Plasmodium falciparum, D6, read-out: IC50 of each drug in combination VOA (2.0 μM) CQ (0.2 μM)), 13.5 ± 2.9 nM; in data set [1] (Plasmodium falciparum, D6, read-out: IC50 of each drug in combination VOA (3.0 μM) CQ (0.1 μM)), 8.2 ± 1.5 nM.

On to `C[C@@H]1CC[C@H]2[C@@H](C)C(=O)O[C@@H]3O[C@@]4(C)CC[C@@H]1[C@]32OO4` [QHS, qinghaosu, reference compound], for which the IC50 in data set [1] (S strain (D6), VOA/QHS ratio 10:1, read-out: IC50 of each drug in combination VOA (2.0 μM) QHS (0.2 μM)) came to 14.6 ± 0.8 nM; in data set [1] (S strain (D6), VOA/QHS ratio 10:3, read-out: IC50 of each drug in combination VOA (1.0 μM) QHS (0.3 μM)), 25.9 ± 2.5 nM; in data set [1] (S strain (D6), VOA/QHS ratio 30:1, read-out: IC50 of each drug in combination VOA (3.0 μM) QHS (0.1 μM)), 9.7 ± 2.3 nM; in data set [1] (S strain (D6), drug alone, Table II, mean ± S.D., three experiments, read-out: IC50, single drug), 38.3 ± 4.7 nM.

`CC=C1CN(C)C2Cc3c([nH]c4ccccc34)C(c3cc4[nH]c5c(c4cc3OC)CCN3CC4CC(CC)C3C5(C(=O)OC)C4)CC1C2C(=O)OC` (centres unmarked) [VOA, Voacamine]: the “toxicity in prior studies” value in data set [2] is on record as “minimal toxicity”. The IC50 is 240 nM in data set [1] (Plasmodium falciparum, D6, read-out: IC50 (10^−7 M) S, chloroquine-sensitive strain of P. falciparum, in vitro, Table V); 238 ± 23.7 nM in data set [1] (Plasmodium falciparum, D6, read-out: IC50, single drug, S strain (D6), drug alone, Table 1, mean ± S.D., three experiments); 298 ± 59.8 nM in data set [1] (Plasmodium falciparum, D6, read-out: IC50, single drug, S strain (D6), drug alone, Table II, mean ± S.D., three experiments); 56.9 ± 8.2 nM in data set [1] (Plasmodium falciparum, D6, read-out: IC50 of each drug in combination VOA (1.0 μM) CQ (0.3 μM), S strain (D6), VOA/CQ ratio 10:3); 87.2 ± 9.5 nM in data set [1] (Plasmodium falciparum, D6, read-out: IC50 of each drug in combination VOA (1.0 μM) QHS (0.3 μM), S strain (D6), VOA/QHS ratio 10:3); 114 ± 25.1 nM in data set [1] (Plasmodium falciparum, D6, read-out: IC50 of each drug in combination VOA (2.0 μM) CQ (0.2 μM), S strain (D6), VOA/CQ ratio 10:1). Besides, the IC50 in data set [1] (Plasmodium falciparum, D6, read-out: IC50 of each drug in combination VOA (2.0 μM) QHS (0.2 μM), S strain (D6), VOA/QHS ratio 10:1) was 114 ± 5.6 nM; in data set [1] (Plasmodium falciparum, D6, read-out: IC50 of each drug in combination VOA (3.0 μM) CQ (0.1 μM), S strain (D6), VOA/CQ ratio 30:1), 223 ± 35.8 nM; in data set [1] (Plasmodium falciparum, D6, read-out: IC50 of each drug in combination VOA (3.0 μM) QHS (0.1 μM), S strain (D6), VOA/QHS ratio 30:1), 240 ± 45.3 nM.

Turning to `C/C=C1/CN(C)[C@H]2Cc3c([nH]c4ccccc34)C(=O)C[C@H]1[C@@H]2C(=O)OC` [VOB, Vobasine], the IC50 in data set [1] (setting [4]) was 470 nM.

Regarding `COc1ccc(CCN(C)CCCC(C#N)(c2ccc(OC)c(OC)c2)C(C)C)cc1OC` (centres unmarked) [verapamil], the “effect on malaria, drug alone” value in data set [3] is “no effect”.

As to Decarbomethoxyvoacamine [DCV], the IC50 in data set [1] (setting [5]) amounted to 490 nM.

With Ervahanine, in data set [1] (setting [5]), the IC50 came out at 680 nM.

For N6Demethylvoacamine [NDV], the IC50 in data set [1] (setting [5]) is 470 nM.

In the case of Tabernamine, the IC50 in data set [1] (setting [5]) was determined as 650 nM.

For Voacamidine [VDN], the IC50 in data set [1] (setting [5]) amounted to 510 nM.

As a reminder, the IC50 is the concentration that gives 50% inhibition.
